# Experimental data: ChEMBL document CHEMBL1201862, “PubChem BioAssay data set” (2004)
# Activity calls are given as the source filed them.
# Key:
# Aminopeptidase N = biological target: T1, Aminopeptidase N (Plasmodium falciparum FcB1/Columbia, UniProt O96935); assay: P. falciparum M1AAP inhibitors, biochemical, fluorogenic H-Leu-NHMec substrate, 1536-well (AID 1445); design: species or system Plasmodium falciparum 3D7, 3D7
# T1 sequence (O96935 whole entry): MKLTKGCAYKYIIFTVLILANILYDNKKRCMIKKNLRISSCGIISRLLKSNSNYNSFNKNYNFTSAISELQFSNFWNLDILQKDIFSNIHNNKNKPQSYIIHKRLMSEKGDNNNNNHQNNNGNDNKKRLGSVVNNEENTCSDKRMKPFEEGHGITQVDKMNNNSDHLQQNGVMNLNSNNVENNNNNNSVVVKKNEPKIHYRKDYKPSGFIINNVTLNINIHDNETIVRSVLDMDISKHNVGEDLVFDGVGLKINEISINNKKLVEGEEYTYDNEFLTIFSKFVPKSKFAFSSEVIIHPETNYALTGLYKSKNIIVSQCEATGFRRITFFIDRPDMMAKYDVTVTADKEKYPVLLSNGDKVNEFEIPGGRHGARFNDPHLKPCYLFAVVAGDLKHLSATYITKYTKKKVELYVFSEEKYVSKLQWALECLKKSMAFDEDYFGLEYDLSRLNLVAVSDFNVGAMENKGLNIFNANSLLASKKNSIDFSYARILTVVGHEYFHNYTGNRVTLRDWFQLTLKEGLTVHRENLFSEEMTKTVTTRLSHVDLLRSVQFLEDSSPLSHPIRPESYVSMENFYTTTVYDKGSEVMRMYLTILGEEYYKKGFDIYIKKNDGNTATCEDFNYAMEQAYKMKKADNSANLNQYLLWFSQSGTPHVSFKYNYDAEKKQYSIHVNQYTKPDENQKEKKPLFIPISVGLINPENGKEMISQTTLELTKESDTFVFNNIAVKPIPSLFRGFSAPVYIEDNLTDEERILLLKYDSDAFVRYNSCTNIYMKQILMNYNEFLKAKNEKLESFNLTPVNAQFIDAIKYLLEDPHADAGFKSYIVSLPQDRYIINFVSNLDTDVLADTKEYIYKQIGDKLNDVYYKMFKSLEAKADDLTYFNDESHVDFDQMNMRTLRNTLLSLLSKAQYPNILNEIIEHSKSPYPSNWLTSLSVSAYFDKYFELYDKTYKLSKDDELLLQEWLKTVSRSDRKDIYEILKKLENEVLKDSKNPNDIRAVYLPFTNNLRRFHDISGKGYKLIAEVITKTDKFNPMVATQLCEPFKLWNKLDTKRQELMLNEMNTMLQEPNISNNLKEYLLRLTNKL
# [1] = biological target: T2, Voltage-gated N-type calcium channel alpha-1B subunit/Amyloid beta A4 precursor protein-binding family A member 1 (Homo sapiens, UniProt Q00975+Q02410); type: protein assay
# [2] = biological target: T2, Voltage-gated N-type calcium channel alpha-1B subunit/Amyloid beta A4 precursor protein-binding family A member 1; type: protein assay; remark: listed apart in the source
# [3] = biological target: T3, Microphthalmia-associated transcription factor (Homo sapiens, UniProt O75030); assay: TRPM1 promoter luciferase signal decrease, dose response, MITF inhibitor project, cell-based, SK-MEL-5, cherry-picked, set 3 (AID 493073); type: functional
# T3 sequence (O75030 whole entry): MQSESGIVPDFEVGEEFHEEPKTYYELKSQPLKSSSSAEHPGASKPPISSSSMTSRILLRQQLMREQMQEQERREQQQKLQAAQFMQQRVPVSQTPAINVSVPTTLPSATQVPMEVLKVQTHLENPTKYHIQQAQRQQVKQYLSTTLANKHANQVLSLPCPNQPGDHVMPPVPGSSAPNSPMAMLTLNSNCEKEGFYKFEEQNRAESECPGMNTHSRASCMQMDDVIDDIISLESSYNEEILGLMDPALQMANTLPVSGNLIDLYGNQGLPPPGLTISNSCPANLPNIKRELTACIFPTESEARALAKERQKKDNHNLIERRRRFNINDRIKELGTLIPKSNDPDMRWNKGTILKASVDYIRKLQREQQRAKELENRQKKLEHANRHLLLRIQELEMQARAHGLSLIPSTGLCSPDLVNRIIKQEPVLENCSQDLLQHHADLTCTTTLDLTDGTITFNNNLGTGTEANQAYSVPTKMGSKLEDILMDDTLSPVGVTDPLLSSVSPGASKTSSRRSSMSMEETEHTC
# Protein skinhead-1 = biological target: T4, Protein skinhead-1 (Caenorhabditis elegans, UniProt P34707); type: functional
# T4 sequence (P34707 whole entry): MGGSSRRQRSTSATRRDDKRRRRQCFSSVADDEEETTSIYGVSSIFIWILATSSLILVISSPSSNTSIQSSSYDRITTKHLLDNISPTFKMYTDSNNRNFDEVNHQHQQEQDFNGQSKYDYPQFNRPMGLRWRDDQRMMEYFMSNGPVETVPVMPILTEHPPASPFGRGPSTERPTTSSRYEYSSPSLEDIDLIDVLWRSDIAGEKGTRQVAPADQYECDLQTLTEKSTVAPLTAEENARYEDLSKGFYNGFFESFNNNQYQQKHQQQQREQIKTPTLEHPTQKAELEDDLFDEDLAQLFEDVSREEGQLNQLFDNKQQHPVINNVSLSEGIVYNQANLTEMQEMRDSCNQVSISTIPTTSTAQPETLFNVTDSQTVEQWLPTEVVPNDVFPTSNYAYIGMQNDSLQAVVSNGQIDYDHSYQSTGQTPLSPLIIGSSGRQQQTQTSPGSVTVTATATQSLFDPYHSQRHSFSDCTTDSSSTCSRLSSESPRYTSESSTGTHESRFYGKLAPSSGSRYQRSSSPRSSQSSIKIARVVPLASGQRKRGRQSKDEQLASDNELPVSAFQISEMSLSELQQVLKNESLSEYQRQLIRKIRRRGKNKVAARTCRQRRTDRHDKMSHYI
# [4] = HEp-2 cell cytotoxicity, dose response, cytotoxicity control for RSV inhibitor project, HTS (AID 2410); type: functional; details: human respiratory syncytial virus
# [5] = biological target: Peroxisome proliferator-activated receptor gamma/Nuclear receptor coactivator 1 (Homo sapiens, UniProt P37231); assay: (§1) TR-FRET dose response biochemical High Throughput Screening assay for agonists of the steroid receptor coactivator 1 (SRC-1) recruitment by the peroxisome proliferator-activated receptor gamma (PPAR gamma): non-selective agonists. [Related pubchem assays (depositor defined):AID1300, AID1808, AID504735, AID631]; type: protein assay
# [6] = biological target: Peroxisome proliferator-activated receptor gamma/Nuclear receptor coactivator 3 (Homo sapiens, UniProt P37231); assay: as §1, with “3 (SRC-3)” for “1 (SRC-1)”, “assays: 1301 (Confirmation screen.), 1048 (Primary screen.)]” for “assays (depositor defined):AID1300, AID1808, AID504735, AID631]”; type: functional
# [7] = biological target: Peroxisome proliferator-activated receptor gamma/Nuclear receptor coactivator 2 (Homo sapiens, UniProt P37231); assay: TR-FRET dose response biochemical High Throughput Screening assay for agonists of the steroid receptor coactivator 2 (SRC-2) recruitment by the peroxisome proliferator-activated receptor gamma (PPAR gamma): non-selective agonists. [Related pubchem assays: 1297, 1032 ]; type: functional
# [8] = THP-1 cell cytotoxicity, dose response, cytotoxicity control for non-replicating M. tuberculosis project (AID 489025); type: functional
# [9] = HepG2 cell cytotoxicity, dose response, cytotoxicity control for non-replicating M. tuberculosis project (AID 489018); type: functional; details: Mycobacterium tuberculosis
# [10] = Vero E6 cell cytotoxicity, dose response, cytotoxicity control for non-replicating M. tuberculosis project, secondary assay (AID 492998); type: functional, VeroE6; details: Vero C1008
# cells = type: functional
# Tumor necrosis factor = Tumor necrosis factor (Homo sapiens, UniProt P01375); assay: TNFa-triggered NF-kB activation inhibitors, SAR follow-up, cell-based, revised (AID 2337); type: functional
# [11] = biological target: T5, Nucleotide-binding oligomerization domain-containing protein 1 (Homo sapiens, UniProt Q9Y239); assay: NOD1 signaling inhibitors, SAR follow-up, revised (AID 2333); type: functional
# T5 sequence (Q9Y239 whole entry): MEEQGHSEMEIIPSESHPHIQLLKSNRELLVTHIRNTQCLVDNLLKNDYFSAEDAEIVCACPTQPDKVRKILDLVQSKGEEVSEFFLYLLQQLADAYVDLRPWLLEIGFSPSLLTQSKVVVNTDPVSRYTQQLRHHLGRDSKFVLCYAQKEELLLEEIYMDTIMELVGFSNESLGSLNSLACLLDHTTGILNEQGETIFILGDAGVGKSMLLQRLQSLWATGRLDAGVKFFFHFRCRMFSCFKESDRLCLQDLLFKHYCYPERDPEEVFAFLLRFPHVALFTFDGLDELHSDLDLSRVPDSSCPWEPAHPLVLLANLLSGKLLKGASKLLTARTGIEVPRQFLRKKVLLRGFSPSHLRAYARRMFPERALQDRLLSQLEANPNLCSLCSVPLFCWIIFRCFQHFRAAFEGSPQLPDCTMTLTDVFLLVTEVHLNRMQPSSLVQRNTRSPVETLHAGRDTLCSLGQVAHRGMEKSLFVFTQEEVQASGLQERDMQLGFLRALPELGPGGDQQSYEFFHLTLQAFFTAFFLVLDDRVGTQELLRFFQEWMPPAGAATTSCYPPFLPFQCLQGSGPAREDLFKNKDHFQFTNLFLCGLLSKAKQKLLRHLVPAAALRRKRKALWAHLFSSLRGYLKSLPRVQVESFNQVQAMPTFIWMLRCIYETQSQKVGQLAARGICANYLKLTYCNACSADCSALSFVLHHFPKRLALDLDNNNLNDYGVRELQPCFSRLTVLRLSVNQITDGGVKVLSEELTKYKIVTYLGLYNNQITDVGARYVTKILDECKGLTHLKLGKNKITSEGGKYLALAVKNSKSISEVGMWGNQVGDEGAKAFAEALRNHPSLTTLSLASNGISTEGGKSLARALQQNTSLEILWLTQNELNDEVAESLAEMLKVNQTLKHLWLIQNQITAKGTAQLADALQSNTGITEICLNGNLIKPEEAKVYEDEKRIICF
# [12] = biological target: Nucleotide-binding oligomerization domain-containing protein 2 (Homo sapiens, UniProt Q9HC29); assay: PubChem AID 2334; type: functional
# HEK293 = assay: cells; details: Homo sapiens;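 further: cells exposed to compound for 14 hours overnight before viability readout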
# Vero = assay: cells; type: functional; details: Chlorocebus sabaeus
# Trypsin = Trypsin (Sus scrofa, UniProt P00761); assay: porcine trypsin inhibitors, dose response, selectivity assay for Rce1 protease inhibitor project, biochemical, quenched peptide fluorescence, cherry-pick (AID 488789)
# CAAX prenyl protease 2 = biological target: T6, CAAX prenyl protease 2 (Saccharomyces cerevisiae S288c, UniProt Q03530); type: biochemical
# T6 sequence (Q03530 whole entry): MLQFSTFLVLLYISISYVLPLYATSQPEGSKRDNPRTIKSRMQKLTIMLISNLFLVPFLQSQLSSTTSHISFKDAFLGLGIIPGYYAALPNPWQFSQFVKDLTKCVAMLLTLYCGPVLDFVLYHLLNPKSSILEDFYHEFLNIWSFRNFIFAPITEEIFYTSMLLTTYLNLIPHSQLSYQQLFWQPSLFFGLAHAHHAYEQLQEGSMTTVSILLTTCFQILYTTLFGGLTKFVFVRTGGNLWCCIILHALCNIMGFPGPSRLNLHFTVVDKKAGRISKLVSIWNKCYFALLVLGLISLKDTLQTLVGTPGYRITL
# [13] = biological target: Intestinal-type alkaline phosphatase (Homo sapiens, UniProt P09923); assay: human intestinal alkaline phosphatase activators, dose response, biochemical, luminescence, uHTS hits (AID 463120); type: functional
# Nonstructural protein 1 = Nonstructural protein 1 (Influenza A virus, UniProt Q194T2); type: functional, Influenza A virus (A/California/07/2009(H1N1))
# Nonstructural protein 1, sequence (Q194T2 whole entry): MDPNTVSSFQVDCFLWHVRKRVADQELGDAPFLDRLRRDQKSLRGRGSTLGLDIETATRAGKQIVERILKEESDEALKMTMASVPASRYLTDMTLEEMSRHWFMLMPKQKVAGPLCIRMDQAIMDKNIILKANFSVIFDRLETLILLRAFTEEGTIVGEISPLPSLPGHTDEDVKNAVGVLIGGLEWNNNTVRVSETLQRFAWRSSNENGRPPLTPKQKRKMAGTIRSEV
# Tumor necrosis factor, sequence (P01375 whole entry, the tested form may be a part): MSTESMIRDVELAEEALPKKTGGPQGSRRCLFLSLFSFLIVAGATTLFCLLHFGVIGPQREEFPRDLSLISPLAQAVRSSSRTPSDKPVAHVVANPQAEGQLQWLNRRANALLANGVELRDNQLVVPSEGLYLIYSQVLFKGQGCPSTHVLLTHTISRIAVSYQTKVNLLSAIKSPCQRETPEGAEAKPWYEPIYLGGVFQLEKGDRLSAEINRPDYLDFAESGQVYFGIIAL
# T2 sequence (Q00975 whole entry): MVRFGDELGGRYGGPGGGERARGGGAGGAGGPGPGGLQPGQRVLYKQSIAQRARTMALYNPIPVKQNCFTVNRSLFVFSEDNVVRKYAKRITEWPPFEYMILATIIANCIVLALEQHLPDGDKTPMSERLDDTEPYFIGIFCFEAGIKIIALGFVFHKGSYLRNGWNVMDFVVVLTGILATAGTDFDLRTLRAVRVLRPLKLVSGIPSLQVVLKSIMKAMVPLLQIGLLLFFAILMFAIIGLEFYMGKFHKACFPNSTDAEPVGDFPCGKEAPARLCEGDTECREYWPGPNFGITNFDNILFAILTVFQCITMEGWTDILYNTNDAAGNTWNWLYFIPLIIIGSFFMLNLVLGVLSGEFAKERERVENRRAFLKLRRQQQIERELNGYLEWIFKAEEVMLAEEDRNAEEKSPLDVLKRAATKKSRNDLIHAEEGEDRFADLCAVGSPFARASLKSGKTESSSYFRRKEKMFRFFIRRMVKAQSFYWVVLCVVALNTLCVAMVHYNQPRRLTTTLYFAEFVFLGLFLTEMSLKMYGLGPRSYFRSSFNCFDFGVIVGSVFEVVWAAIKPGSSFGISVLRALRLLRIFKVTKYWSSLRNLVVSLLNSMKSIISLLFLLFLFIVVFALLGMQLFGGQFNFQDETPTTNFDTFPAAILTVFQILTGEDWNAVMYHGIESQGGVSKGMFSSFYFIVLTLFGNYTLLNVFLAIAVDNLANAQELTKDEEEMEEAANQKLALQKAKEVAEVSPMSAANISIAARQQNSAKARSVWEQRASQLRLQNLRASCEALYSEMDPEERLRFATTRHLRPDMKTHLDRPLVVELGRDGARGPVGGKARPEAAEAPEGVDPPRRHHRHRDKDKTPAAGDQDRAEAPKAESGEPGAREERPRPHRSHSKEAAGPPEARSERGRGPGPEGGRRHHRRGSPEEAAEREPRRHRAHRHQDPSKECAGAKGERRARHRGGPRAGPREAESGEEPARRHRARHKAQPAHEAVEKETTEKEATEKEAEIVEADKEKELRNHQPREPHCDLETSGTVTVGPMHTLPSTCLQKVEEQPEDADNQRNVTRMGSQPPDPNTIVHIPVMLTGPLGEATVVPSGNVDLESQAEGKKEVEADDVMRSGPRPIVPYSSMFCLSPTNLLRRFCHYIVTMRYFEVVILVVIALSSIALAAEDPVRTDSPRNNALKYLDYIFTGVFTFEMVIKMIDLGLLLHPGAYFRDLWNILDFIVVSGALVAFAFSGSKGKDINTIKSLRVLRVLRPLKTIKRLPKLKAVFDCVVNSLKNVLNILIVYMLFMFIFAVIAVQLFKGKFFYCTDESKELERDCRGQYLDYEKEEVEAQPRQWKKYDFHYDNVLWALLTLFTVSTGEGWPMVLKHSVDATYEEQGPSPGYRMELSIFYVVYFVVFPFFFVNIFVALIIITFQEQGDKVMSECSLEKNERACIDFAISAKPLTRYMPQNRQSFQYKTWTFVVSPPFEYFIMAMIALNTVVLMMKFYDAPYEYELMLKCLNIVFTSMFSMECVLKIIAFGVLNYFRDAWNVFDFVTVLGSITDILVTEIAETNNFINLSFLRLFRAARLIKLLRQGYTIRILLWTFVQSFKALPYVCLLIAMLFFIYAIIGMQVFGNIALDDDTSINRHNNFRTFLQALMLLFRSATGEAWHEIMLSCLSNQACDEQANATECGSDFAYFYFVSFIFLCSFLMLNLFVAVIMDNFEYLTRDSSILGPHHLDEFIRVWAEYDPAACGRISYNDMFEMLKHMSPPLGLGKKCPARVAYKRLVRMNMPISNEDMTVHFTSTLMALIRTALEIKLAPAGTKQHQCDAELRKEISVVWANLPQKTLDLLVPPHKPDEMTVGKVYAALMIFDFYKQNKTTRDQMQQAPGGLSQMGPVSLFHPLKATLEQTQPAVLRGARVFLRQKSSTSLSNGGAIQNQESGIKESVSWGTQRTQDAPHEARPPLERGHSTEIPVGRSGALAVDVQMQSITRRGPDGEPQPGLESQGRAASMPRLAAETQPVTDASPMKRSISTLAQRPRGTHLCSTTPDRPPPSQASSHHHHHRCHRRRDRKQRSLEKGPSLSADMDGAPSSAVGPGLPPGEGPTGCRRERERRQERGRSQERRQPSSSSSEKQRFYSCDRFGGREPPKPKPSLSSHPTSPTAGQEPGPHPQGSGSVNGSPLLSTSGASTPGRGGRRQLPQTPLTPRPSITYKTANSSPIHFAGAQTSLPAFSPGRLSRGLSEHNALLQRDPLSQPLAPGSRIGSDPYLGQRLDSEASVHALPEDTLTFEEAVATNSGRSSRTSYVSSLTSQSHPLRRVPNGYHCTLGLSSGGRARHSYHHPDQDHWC
# T2 sequence (Q02410 whole entry): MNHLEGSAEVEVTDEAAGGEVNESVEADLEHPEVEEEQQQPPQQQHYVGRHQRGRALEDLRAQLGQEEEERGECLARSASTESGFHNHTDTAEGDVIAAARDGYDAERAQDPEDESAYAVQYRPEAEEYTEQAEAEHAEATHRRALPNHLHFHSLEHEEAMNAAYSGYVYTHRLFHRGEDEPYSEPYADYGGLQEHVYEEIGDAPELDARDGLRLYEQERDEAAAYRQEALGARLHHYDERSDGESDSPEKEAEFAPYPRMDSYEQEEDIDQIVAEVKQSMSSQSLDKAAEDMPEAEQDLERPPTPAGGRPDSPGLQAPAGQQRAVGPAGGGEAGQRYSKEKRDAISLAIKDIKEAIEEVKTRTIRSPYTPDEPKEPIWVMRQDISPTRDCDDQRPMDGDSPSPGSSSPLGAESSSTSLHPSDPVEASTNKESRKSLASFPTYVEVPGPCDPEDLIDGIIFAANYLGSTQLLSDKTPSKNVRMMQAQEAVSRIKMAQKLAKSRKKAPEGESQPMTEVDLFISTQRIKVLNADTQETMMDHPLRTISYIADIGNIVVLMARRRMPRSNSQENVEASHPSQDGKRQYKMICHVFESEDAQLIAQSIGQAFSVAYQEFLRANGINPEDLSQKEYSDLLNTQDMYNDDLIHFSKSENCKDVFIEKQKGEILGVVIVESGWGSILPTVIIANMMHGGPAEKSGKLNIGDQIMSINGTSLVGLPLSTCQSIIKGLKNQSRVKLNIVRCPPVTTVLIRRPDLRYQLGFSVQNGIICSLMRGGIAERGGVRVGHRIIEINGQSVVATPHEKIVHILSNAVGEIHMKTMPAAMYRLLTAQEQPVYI
# Nucleotide-binding oligomerization domain-containing protein 2, sequence (Q9HC29 whole entry, the tested form may be a part): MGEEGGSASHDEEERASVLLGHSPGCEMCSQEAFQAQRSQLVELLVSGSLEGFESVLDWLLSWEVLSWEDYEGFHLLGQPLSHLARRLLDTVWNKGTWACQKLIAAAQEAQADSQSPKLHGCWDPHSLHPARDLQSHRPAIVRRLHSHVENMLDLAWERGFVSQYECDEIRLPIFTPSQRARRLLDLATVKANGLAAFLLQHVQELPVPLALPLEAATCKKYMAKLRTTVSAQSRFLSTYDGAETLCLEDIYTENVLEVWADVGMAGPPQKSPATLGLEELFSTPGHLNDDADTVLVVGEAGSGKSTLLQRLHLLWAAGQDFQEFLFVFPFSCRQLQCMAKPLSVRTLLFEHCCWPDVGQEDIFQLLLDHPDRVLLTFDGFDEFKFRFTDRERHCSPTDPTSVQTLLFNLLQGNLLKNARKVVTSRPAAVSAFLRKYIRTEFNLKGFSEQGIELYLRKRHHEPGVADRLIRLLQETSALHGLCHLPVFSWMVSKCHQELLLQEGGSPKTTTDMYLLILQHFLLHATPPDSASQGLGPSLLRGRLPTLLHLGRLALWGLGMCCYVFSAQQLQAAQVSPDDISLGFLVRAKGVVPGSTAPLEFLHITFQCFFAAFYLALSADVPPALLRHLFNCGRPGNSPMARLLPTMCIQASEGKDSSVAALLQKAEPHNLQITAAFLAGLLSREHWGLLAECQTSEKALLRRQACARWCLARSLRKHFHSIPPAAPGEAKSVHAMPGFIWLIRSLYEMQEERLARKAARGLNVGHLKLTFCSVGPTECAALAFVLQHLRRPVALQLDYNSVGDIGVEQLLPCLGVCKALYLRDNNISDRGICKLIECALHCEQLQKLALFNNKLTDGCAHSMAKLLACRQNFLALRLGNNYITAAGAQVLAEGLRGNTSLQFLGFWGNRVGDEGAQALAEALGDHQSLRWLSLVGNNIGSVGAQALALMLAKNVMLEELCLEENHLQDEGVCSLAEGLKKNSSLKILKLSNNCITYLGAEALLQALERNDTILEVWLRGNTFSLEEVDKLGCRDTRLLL
# Trypsin, sequence (P00761 whole entry): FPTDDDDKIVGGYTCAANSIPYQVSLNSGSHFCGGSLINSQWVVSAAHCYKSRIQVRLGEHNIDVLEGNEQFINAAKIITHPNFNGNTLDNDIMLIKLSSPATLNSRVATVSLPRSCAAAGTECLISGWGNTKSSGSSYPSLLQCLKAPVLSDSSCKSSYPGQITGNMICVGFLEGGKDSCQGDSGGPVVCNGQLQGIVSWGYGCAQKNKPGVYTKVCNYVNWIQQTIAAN
smiles,measurement,setting,value
O=C(O)c1ccc(Nc2nc(-c3cc4ccccc4oc3=O)cs2)cc1O,IC50,Aminopeptidase N,9.7 µM (active)
same,IC50,[1],7.29 µM (active)
same,IC50,[2],> 50 µM (inactive)
O=C(Nc1ccc([N+](=O)[O-])cc1)c1ccccc1,AC50,[3],40.2 µM (active)
same,IC50,Protein skinhead-1,> 100 µM (inactive)
CCc1ccc(-n2c(SCc3cc(=O)n4cc(Br)ccc4n3)nc3nncc-3c2O)cc1,CC50,[4],17 µM (active)
same,EC50,[5],> 79.4 µM (inactive)
same,EC50,[6],> 79.4 µM (not active)
same,EC50,[7],14.4 µM (not active)
CCOc1ccc2nc(NC(=O)c3cnc(C)cn3)sc2c1,CC50,[8],> 40 µM (active)
same,CC50,[9],> 20 µM (active)
same,CC50,[10],12.7 µM (active)
same,IC50,cells,6.53 µM (active)
CC(=O)N1CCc2cc(S(=O)(=O)N3CCN(c4ccc(C#N)cc4)CC3)ccc21,IC50,Tumor necrosis factor,8.79 µM (active)
same,IC50,[11],5.87 µM (active)
same,IC50,[12],9.24 µM (active)
same,IC50,HEK293,> 20 µM (inactive)
CCC(=O)N1CCc2cc(S(=O)(=O)N3CCN(c4ccc(Cl)cc4)CC3)ccc21,IC50,Tumor necrosis factor,> 20 µM (inactive)
same,IC50,[11],> 20 µM (inactive)
same,IC50,[12],> 20 µM (inactive)
same,IC50,HEK293,> 20 µM (inactive)
O=C(NCc1ccc2c(c1)OCO2)C1CCCN1C(=O)Nc1cccc(F)c1 (stereo not given),IC50,Aminopeptidase N,75 µM (active)
O=C(Nc1ccccc1N1CCN(C(=O)c2ccccc2)CC1)c1ccc([N+](=O)[O-])o1,AC50,[3],11.4 µM (active)
same,CC50,Vero,21.6 µM (active)
CSCCC(C(=O)NC1=NCCS1)N1C(=O)c2ccccc2C1=O (stereo not given),IC50,Aminopeptidase N,17.8 µM (active)
O=C1OCCN1C(=O)[C@H]1[C@H](c2ccc(F)cc2)C(c2ccc(F)cc2)=NN1c1ccc(Br)cc1,AC50,Trypsin,14.1 µM (active)
N=c1n(CCN2CCCCC2)c2ccccc2n1CC(=O)c1ccc(Cl)c(Cl)c1,CC50,[8],18.2 µM (active)
same,CC50,[9],11.9 µM (active)
same,IC50,cells,23.9 µM (active)
Cc1nn(Cc2ccccc2Cl)c(C)c1C(=O)NCCN1C(=O)S/C(=C\c2ccccc2)C1=O,EC50,[5],> 79.4 µM (inactive)
same,EC50,[6],> 79.4 µM (not active)
same,EC50,[7],> 79.4 µM (not active)
CCCOc1ccc(-c2nc3c(c(=O)[nH]c(=O)n3Cc3ccccc3)n2CCO)cc1OCC,AC50,CAAX prenyl protease 2,14.5 µM (active)
O=C(NCCCN1CCOCC1)C(=O)N/N=C/c1ccccc1O,EC50,[13],19.2 µM (active)
same,IC50,Nonstructural protein 1,11.2 µM (active)
